Where “and” joins values, the source holds several entries; their conditions need not be identical. Equal values may be shown once. Read-outs that look alike come from different tables or passages of the source.
How the values were obtained:
[1] = Plasma concentrations by HPLC with fluorescence detection; type: in vivo, human; settings: for concentration at 28 day: human, plasma, oral, 75 mg tid, 12 subjects, about 1 month of 75 mg tid; for Plasma concentrations: individual subjects, sampling day 27-30, midostaurin 75 mg tid
Description: (§1) Therefore, the tumour tissue was frozen and cut into as small as possible pieces with a scalpel. The pieces were weighed, added to 1 ml of water, vortexed and thereafter treated like plasma. The assay for plasma samples was validated with acceptable calibration curves, within-study variability and total recovery. […] Due to limited availability of tumour tissue, the within-study validation for tumour assay was not performed.

[2] = Tumour tissue concentrations by HPLC with fluorescence detection; type: in vivo, human; settings: for Kp at 28 day / concentration at 28 day: human, oral, 10 subjects; for Kp at 28 day: tumour tissue / plasma, 75 mg three times a day; for Kp at 28 day / Tissue/plasma ratios: tumour tissue to plasma; for concentration at 28 day / Tissue concentrations: tumour tissue, about 1 month of 75 mg tid; for concentration at 28 day: 75 mg tid; for Tissue/plasma ratios / Tissue concentrations: individual subjects
Description: as §1

[3] = parameters: method as in Propper et al, 2001; settings: Phase I trial, oral; ref Propper et al, 2001; cited from earlier work
PKC isotypes = settings: metabolites, compared with parent drug; no reference given; read-out: IC50 against PKC isotypes; cited from earlier work
[4] = read-out: Plasma concentrations, maximum
[5] = read-out: Plasma concentrations, mean
[6] = read-out: Plasma concentrations, median
[7] = read-out: Plasma concentrations, minimum
[8] = read-out: Tissue/plasma ratios, maximum
[9] = read-out: Tissue/plasma ratios, mean
[10] = read-out: Tissue/plasma ratios, median
[11] = read-out: Tissue/plasma ratios, minimum
[12] = read-out: Tissue concentrations, maximum
[13] = read-out: Tissue concentrations, mean
[14] = read-out: Tissue concentrations, median
[15] = read-out: Tissue concentrations, minimum

Row | Compound | concentration at 28 day [1, 4] [µM] | concentration at 28 day [1, 5] [µM] | concentration at 28 day [1, 6] [µM] | concentration at 28 day [1, 7] [µM] | Plasma concentrations [1] | Kp at 28 day [2, 8] | Kp at 28 day [2, 9] | Kp at 28 day [2, 10] | Kp at 28 day [2, 11] | concentration at 28 day [2, 12] [µM] | concentration at 28 day [2, 13] [µM] | concentration at 28 day [2, 14] [µM] | concentration at 28 day [2, 15] [µM] | Tissue/plasma ratios [2] | Tissue concentrations [2] | Estimated median elimination t1/2 [3] [days] | IC50 (PKC isotypes) [nM]
1 | CO[C@@H]1[C@H](N(C)C(=O)c2ccccc2)C[C@H]2O[C@]1(C)n1c3ccccc3c3c4c(c5c6ccccc6n2c5c31)C(=O)NC4O (single isomer, unassigned) [CGP52421 (e2)] | 22.4 | 17.3 | 18.4 | 10.8 | 19.151 µM and 16.633 µM and 11.311 µM and 18.383 µM and 19.519 µM and 18.475 µM and 22.448 µM and 13.352 µM and 10.767 µM and 15.869 µM and 20.34 µM and 20.944 µM | 0.153 | 0.085 | 0.083 | 0.033 | 3.21 | 1.51 | 1.52 | 0.635 | 0.03 and 0.09 and 0.07 and 0.06 and 0.12 and 0.08 and 0.11 and 0.05 and 0.15 | 635 nM and 1528 nM and 789 nM and 1031 nM and 2367 nM and 1569 nM and 1503 nM and 776 nM and 1644 nM and 3212 nM | 36 | –
2 | CO[C@@H]1[C@H](N(C)C(=O)c2ccccc2)C[C@H]2O[C@]1(C)n1c3ccccc3c3c4c(c5c6ccccc6n2c5c31)C(=O)N[C@H]4O [CGP52421] | – | – | 18.4 | – | – | – | – | 0.083 | – | – | – | 1.52 | – | – | – | – | 50
3 | CN(C(=O)c1ccccc1)[C@@H]1C[C@H]2O[C@@](C)([C@@H]1O)n1c3ccccc3c3c4c(c5c6ccccc6n2c5c31)C(=O)NC4 [CGP 62221] | 10.1 | 5.36 | 5.43 | 2.47 | 4.66 µM and 3.227 µM and 2.474 µM and 7.205 µM and 5.723 µM and 6.061 µM and 10.132 µM and 2.995 µM and 5.761 µM and 5.28 µM and 5.265 µM and 5.586 µM | 0.42 | 0.21 | 0.2 | 0.04 | 2.35 | 0.99 | 0.71 | 0.175 | 0.04 and 0.19 and 0.21 and 0.11 and 0.35 and 0.34 and 0.12 and 0.22 and 0.42 | 175 nM and 609 nM and 523 nM and 759 nM and 2006 nM and 661 nM and 1022 nM and 651 nM and 1143 nM and 2353 nM | – | 120
